System: dorsal root ganglion (DRG) neurons
Test: DRG neurons replating culture, axon growth
Format: cell-based, mice
Settings: one day treatment, then replated 20 hours under continued treatment, vs DMSO vehicle
Experimental: FIGS. 3A-3B Edaravone promotes axon elongation in DRG replating culture. (FIG. 3A) Representative image of replated DRG neurons treated by the DMSO vehicle control and indicated concentration of edaravone. Scale bar: 400 μm. (FIG. 3B) Quantification of the longest neuron length of the tested concentrations of edaravone. Dots represent the measurement of each neuron.
Primary culture and replating culture of DRG neurons were performed as following protocols. L3-L5 dorsal root ganglia (DRGs) were dissected from adult WT mice and digested in 0.5% collagenase for 90 minutes. Subsequently, the digestion medium was replaced with culture medium (Neurobasal-A supplemented with penicillin-streptomycin and B-27). The digested DRGs were then triturated with a pipette 20-30 times to isolate DRG neurons. The isolated DRG neurons were plated onto a 6-well plate pre-coated with Poly-D-Lysine and laminin. Primary cultured DRG neurons received 1 μM edaravone, 10 μM edaravone or DMSO vehicle treatment for one day. After then, neurons were resuspended and replated to another dish under continue treatment of vehicle/edaravone. The replating culture was terminated with 4% PFA after 20 hours. Tuj1 staining was performed to visualize DRG cell bodies and neurites.
Adult mice dorsal root ganglion (DRG) neurons replating culture was used to investigate the effect of edaravone on axon growth. […]

## CC1=NN(c2ccccc2)C(=O)C1 [edaravone, 5-methyl-2-phenyl-2,4-dihydro-3H-pyrazol-3-one]
1 μM
  axon (neurite) growth, longest neuron length: significant growth-promoting effect
10 μM
  axon (neurite) growth, longest neuron length: significant growth-promoting effect
